# Laboratory results reported in patent US6846802B2, “Macrocyclic NS3-serine protease inhibitors of hepatitis C virus comprising N-cyclic P2 moieties” (priority 2000, dated 2005).
# Starred links: 1 amine or outer side, 2 acyl side, 3 side chain; linkers in the order of their positions; H or OH if unused. Positions of bridges follow the written chain, without caps; N, C: chain ends. Non-standard residues stand in square brackets, D forms with d. Residues, ends and D or L forms follow the SMILES beside them. Tic(7-O(CH2)6CO) = O=C([C@@H]1Cc2ccc(OCCCCCCC(=O)[*:3])cc2CN1[*:1])[*:2]; X1 = CCC[C@H](N[*:1])C(=O)C(=O)[*:2]; Chg = N[C@H](C(=O)O)C1CCCCC1; Phg = N[C@H](C(=O)O)c1ccccc1
# Molecular target: HCV serine protease (subtype 1b, 1bNS4A21-32GS-GS NS3-81 I17K) in HeLa/Huh7 cells (Hepatitis C virus genotype 1b, UniProt P26663, I1043K)
# Assay type: cell-based
row,Compound,Cell-Based Assay
1,CCCC(NC(=O)[C@@H]1C[C@@H]2CN1C(=O)[C@H](C1CCCCC1)NC(=O)Cc1cccc(c1)OCCCCO2)C(=O)C(=O)NCC(=O)N[C@H](C(=O)OC(C)(C)C)c1ccccc1 (mixture of isomers) [Compound 5],0.6 µM
2,CCCC(NC(=O)[C@@H]1C[C@@H]2CN1C(=O)[C@H](C1CCCCC1)NC(=O)Cc1cccc(c1)OCCO2)C(=O)C(=O)NCC(=O)N[C@H](C(=O)OC(C)(C)C)c1ccccc1 (mixture of isomers) [Compound 8],3.5 µM
3,CCC[C@H](NC(=O)[C@@H]1Cc2ccc3cc2CN1C(=O)[C@H](C1CCCCC1)NC(=O)CCCCCCO3)C(=O)C(=O)NCC(=O)N[C@H](C(=O)N(C)C)c1ccccc1 [Compound 57B] ([Chg][Tic(7-O(CH2)6CO)][X1]G[Phg]-NMe2; lactam N-2),1.5 µM
4,CCCC(NC(=O)[C@@H]1C[C@@H]2CN1C(=O)[C@H](C1CCCCC1)NC(=O)Cc1cccc(c1)OCCCO2)C(=O)C(=O)NCC(=O)OCc1ccccc1 (stereo partly shown) [Compound 23],3 µM
5,CCCC(NC(=O)[C@@H]1C[C@@H]2CN1C(=O)[C@H](C1CCCCC1)NC(=O)Cc1cccc(c1)OCCCO2)C(=O)C(=O)NCC(=O)N[C@H](C(=O)OC(C)(C)C)c1ccccc1 (stereo partly shown) [Compound 2],2 µM
6,CCC[C@@H](NC(=O)[C@@H]1C[C@@H]2CN1C(=O)[C@H](C1CCCCC1)NC(=O)Cc1cccc(c1)OCCCCO2)C(=O)C(=O)NCC(=O)N[C@H](C(=O)N(C)C)c1ccccc1 [Compound 4A],2.5 µM
7,CCCC(NC(=O)[C@@H]1C[C@@H]2CN1C(=O)[C@H](C1CCCCC1)NC(=O)CCc1cccc(c1)OCCO2)C(=O)C(=O)NCC(=O)N[C@H](C(=O)OC(C)(C)C)c1ccccc1 (stereo partly shown) [Compound 21],2 µM
8,CCCC(NC(=O)[C@@H]1Cc2ccc3cc2CN1C(=O)[C@H](C1CCCCC1)NC(=O)CCCCCCO3)C(=O)C(=O)NCC(=O)N[C@H](C(=O)OC(C)(C)C)c1ccccc1 (mixture of isomers) [Compound 58],2 µM
9,CCC[C@H](NC(=O)[C@@H]1C[C@@H]2CN1C(=O)[C@H](C1CCCCC1)NC(=O)Cc1cccc(c1)OCCCCO2)C(=O)C(=O)NCC(=O)N[C@H](C(=O)N(C)C)c1ccccc1 [Compound 4B],1.8 µM
10,CCC[C@H](NC(=O)[C@@H]1C[C@@H]2CN1C(=O)[C@H](C(C)(C)C)NC(=O)Cc1cccc(c1)OCCCO2)C(=O)C(=O)NCC(=O)N[C@H](C(=O)N(C)C)c1ccccc1 [Compound 12B],5.2 µM
